According to patent US8287934B2, “Use of diacetyl dimer as an aromatic and/or flavouring substance” (Symrise AG, priority 2006, dated 2012):

Experiments:
[1] = Tasting in sweet/salty solution (flavour profile by testers); format: in vivo
Method: The actions found were evaluated with a scale of from 1 (action scarcely perceptible) to 9 (action highly perceptible).
The 5-acetyl-2,5-dimethyl-2-hydroxy-tetrahydrofuran-3-one from Example 1 (2 ppm diacetyl dimer of formula (I) in aqueous 5 wt. % sucrose or 0.5% sodium chloride solution) was investigated for its flavouring action by 9 testers.
The 2,5-diacetyl-3a,5,6,6a-tetrahydro-6a-hydroxy-2,3a,5-trimethylfuro[2,3-d]-1,3-dioxole from Example 1a (1 ppm diacetyl trimer of formula (II) in aqueous 5 wt. % sucrose or 0.5% sodium chloride solution) was investigated for its flavouring action by 9 testers.
The aromatic and/or flavouring composition containing diacetyl dimer of formula (I) and diacetyl trimer of formula (II) from example (1b) (1 ppm of the composition in aqueous 5 wt. % sucrose or 0.5% sodium chloride solution) was investigated for its flavouring action by 7 testers.
For comparison, a flavour profile of diacetyl (1 ppm in aq. 5% sucrose or 0.5% sodium chloride solution) was produced under otherwise identical conditions: fatty (oily) (5), cream (5), butter (7), milk (4), condensed milk (4), fruity (2), cheesy (2), sweet (4), vanillin (2), intensity (7), impact (7), fullness (7), adhesive (5), soft (6).

[2] = Stability on heating and in formulations; format: physicochemical; details: for decomposition when heated: heated at 60° C. to 100° C. for 10 minutes
[3] = 2 ppm in aqueous 5 wt. % sucrose or 0.5% sodium chloride solution, scale 1 to 9
[4] = 1 ppm in aqueous 5 wt. % sucrose or 0.5% sodium chloride solution, scale 1 (scarcely perceptible) to 9 (highly perceptible)
[5] = 1 ppm in aqueous 5 wt. % sucrose or 0.5% sodium chloride solution, scale 1 to 9
[6] = 1 ppm in aq. 5% sucrose or 0.5% sodium chloride solution, scale 1 to 9

Row | decomposition when heated [2] | Compound | flavour profile: fatty (oily) [1, 4] | flavour profile: adhesive [1, 5] | flavour profile: butter [1, 5] | flavour profile: cream [1, 5] | flavour profile: fullness [1, 5] | flavour profile: impact [1, 5] | flavour profile: intensity [1, 5] | flavour profile: soft [1, 5] | flavour profile: sweet [1, 5] | flavour profile: vanillin [1, 5] | further results
1 | does not decompose | CC(=O)C1(C)CC(=O)C(C)(O)O1 (racemic) [diacetyl dimer of formula (I), 5-acetyl-2,5-dimethyl-2-hydroxy-tetrahydrofuran-3-one] | – | – | – | – | – | – | – | – | – | – | flavour profile: cream ([1]; 2 ppm in aqueous 5 wt. % sucrose or 0.5% sodium chloride solution, scale 1 (scarcely perceptible) to 9 (highly perceptible)): 5; flavour profile: butter [1, 3]: 5; flavour profile: caramel [1, 3]: 3; flavour profile: fullness [1, 3]: 6; flavour profile: intensity [1, 3]: 5; flavour profile: soft [1, 3]: 6; flavour profile: sweet [1, 3]: 5; flavour profile: toffee [1, 3]: 4; flavour profile: vanillin [1, 3]: 3; stability in formulations compared with diacetyl ([2]; nutrition, oral hygiene, luxury product or oral pharmaceutical formulations, in particular acidic or basic pH-value): significantly more stable than diacetyl
2 | does not decompose | CC(=O)C1(C)CC2(O)OC(C)(C(C)=O)OC2(C)O1 (racemic) [diacetyl trimer of formula (II), 2,5-diacetyl-3a,5,6,6a-tetrahydro-6a-hydroxy-2,3a,5-trimethylfuro[2,3-d]-1,3-dioxole] | 7 | 8 | 8 | 6 | 7 | 7 | 6 | 6 | 6 | 3 | flavour profile: caramel [1, 5]: 4; flavour profile: fresh cheese/quark [1, 5]: 4; flavour profile: toffee [1, 5]: 6
3 | – | CC(=O)C(C)=O [diacetyl, 2,3-butanedione] | 5 | 5 | 7 | 5 | 7 | 7 | 7 | 6 | 4 | 2 | flavour profile: cheesy [1, 6]: 2; flavour profile: condensed milk [1, 6]: 4; flavour profile: fruity [1, 6]: 2; flavour profile: milk [1, 6]: 4
